“Also recorded” adds a separate entry of the source.
How the values were obtained:
[1] = Precipitation from culture medium, microscopy, 20 μM (Example 11, Fig. 6); type: physicochemical; conditions: 24 h incubation with cells
[2] = system: 3T3-L1 mouse adipocytes (3T3-L1小鼠脂肪细胞); assay: Triglyceride content of differentiating 3T3-L1 adipocytes (triglyceride assay kit); type: cell-based
cells (细胞) = assay: Reduction of fat accumulation (general statement, test not specified); type: cell-based; conditions: inventors' finding
[3] = system: FAO rat hepatocytes (FAO大鼠肝细胞); assay: High-fructose-induced fat accumulation in FAO hepatocytes (triglyceride kit and BCA protein kit); type: cell-based; conditions: 24 h, Fig. 5
[4] = Precipitation from culture medium, microscopy, 15 μM (Example 10, Fig. 4); type: physicochemical; conditions: incubated with 3T3-L1 cells 6 days

precipitation from culture medium [1]: 会从培养基中析出; also recorded: 从培养基中析出来
concentration dependence of inhibition of high-fructose-induced fat accumulation in FAO rat hepatocytes ([3]; R1 0, 0.3, 10, 20 μM, R17 0, 0.1, 0.3, 10 μM): 浓度依赖性地抑制; also recorded: 浓度依赖性地减少
precipitation from culture medium [4]: 从培养基中析出来
SMILES: O=c1c2ccccc2nc2n1CCc1c-2[nH]c2ccccc12 [R1, 吴茱萸次碱]
effect on triglyceride content of 3T3-L1 cells vs DMSO control (DM) ([2]; 1 μM, Fig. 1, significance vs DM): 显著性地降低
inhibition at 3 µM ([2]; Mus musculus, 144 h, 3T3-L1 cells, 3 μM, Day 6, vs DMSO control, mean of three independent experiments, Fig. 2, read-out: reduction of triglyceride content): 34%
concentration dependence of reduction of fat accumulation in 3T3-L1 cells ([2]; R1 0, 0.3, 1, 3, 10, 15 μM, R17 and R18 0, 0.03, 0.1, 0.3, 1, 3 μM, Fig. 2): 浓度依赖性地减少
reduction of fat accumulation in cells (cells (细胞)): 能减少细胞的脂肪蓄积
inhibition at 10 µM ([3]; Hepatocyte, FAO rat hepatocytes, 10 μM, 25 mM fructose, triglyceride per mg protein vs control, mean of three independent experiments, read-out: reduction of high-fructose-induced fat accumulation): 72%

Reference: patent CN102775413A, “氨基取代吴茱萸次碱类似物及其合成方法与在制备抗肥胖症药物中的应用” (Sun Yat Sen University, priority 2012, dated 2012)
